Measured values as given in patent US9250249B2, “Autophagy and phospholipidosis pathway assays” (Enzo Biochem, Inc., priority 2008, dated 2016).
Read-outs that look alike come from different tables or passages of the source.

Columns and labels:
[1] = pH dependence of Dye 1 fluorescence; type: physicochemical; conditions: pH range of 4.0 to 9.0
[2] = tested on: U2OS cells; assay: Lipid-Tox fluorescent phospholipid analog-based phospholipidosis assay; type: cell-based, human; conditions: 24 hours co-incubation with Lipid-Tox dye and drug
Description: Many assays of phospholipidosis, including the Lipid-Tox assay (Invitrogen, Carlsbad, Calif.), are based upon co-incubating cells with a fluorescent phospholipid analog for an extended period of time, along with the drug or test agent being evaluated, and then monitoring signal generation in fixed and permeabilized cells. Dye 1 is not a fluorescent phospholipid analog, but instead is a cationic amphiphilic fluorophore tracer. Cells are incubated with the drug or test agent in isolation and then briefly treated with the tracer dye before evaluation in live cells. […] Choloroquine, a prototypical phospholipidosis-inducing agent, and bafilomycin A, an agent well known to induce the accumulation of autophagosomes, were evaluated using both Dye 1 and Lipid-Tox dye-based assays (FIG. 3). […] Cells stained with Lipid-Tox dye (solid triangles dash-dot line) were incubated in the presence of the fluorescent lipid for 24 hours during treatment with the drugs.

[3] = tested on: U2OS cells; assay: Cell number per well by Hoechst 33342 fluorescence (generalized compound toxicity); conditions: for Relative Hoechst Stain (intensity of Hoechst 33342 fluorescence of treated cells compared to the untreated control; number of cells remaining): 18 hours, single concentration per compound; for generalized cellular toxicity (loss of cells / decrease in Hoechst 33342 signal): greater than 30% decrease in cell number flagged as toxic
Description: (§1) Fluorescence intensity of the cells cultured on the 96-well plates was measured using a FLUOstar OPTIMA Multifunction Microplate Reader (BMG LabTech, Offenburg, Germany). […] Fluorescence intensity was expressed as percentage of the vehicle control value.
(§2) In the preliminary screen, test agents were employed at a single dose in an effort to identify any potential lysosome-modifying agents.

[4] = tested on: U2OS cells; assay: Fluorescence microplate-based lysosomal perturbation assay (Dye 1 fluorescence), incl. ICCB library screen; conditions: for Relative Lyso Stain (intensity of Dye 1 fluorescence of treated cells compared to the untreated control): 18 hours, single concentration per compound; for vacuolation / expansion of lysosomal compartment detected by Dye 1 assay: Dye 1 stained post drug incubation; for hit call in ICCB library screen (Dye 1 accumulation): ICCB known bioactives library screen
Description: In order to increase throughput and reduce handling time, the fluorescence microscopy-based lysosomal perturbation assay was scaled up to a 96-well microplate plate assay format and analyzed using a fluorescence microplate reader.
as §1, §2

[5] = tested on: U2OS cells; assay: Multiplexed CF-PE / Dye 1 / Hoechst 33342 microplate assay distinguishing phospholipidosis from autophagy pathway inhibition; type: cell-based, human; conditions: 24 h with CF-PE medium and test compound
Description: For example, CF-PE was suspended in ethanol and diluted in the cell culture medium (McCoy's 5a modified medium, as described in Example 3) to give a solution (CF-PE medium) with final concentration of 50 μM (0.46% ethanol). […] medium was then sonicated and filtered through a […] filter. The prepared was then applied to U2OS cells growing in a 96-well microplate. After an equilibration period of 24 h, the cell culture medium was replaced with CF-PE medium with or without each test compound, and the cells were incubated at 37° C. for an additional 24 h. After incubation, the cells were rinsed with medium and further incubated with the same medium containing Dye 1 and Hoechst 33342 dye for an additional 15 min at 37° C. in 5% CO2 atmosphere.
Fluorescence signal was determined using a standard microplate reader, as described in example 4, except that CF-PE was additionally read at an excitation wavelength of 492 nm and an emission wavelength of 517 nm. […] Generalized cytotoxicity is evident as a substantial decrease in blue signal (≧30%) relative to vehicle-treated control cells.

[6] = tested on: U2OS cells; conditions: for Relative Hoechst Stain (intensity of Hoechst 33342 fluorescence of treated cells compared to the untreated control; number of cells remaining): human, 18 h
Description: as §1, §2

[7] = tested on: cultured cells; conditions: high micromolar concentrations; cited from earlier work
[8] = tested on: U-2-OS human osteosarcoma cells; assay: In vitro model of sphingolipidosis (Niemann-Pick mimic), microplate readout at 680 nm and 480 nm; type: cell-based
Text: Stable cell lines derived from patients with Niemann-Pick disease can not be found in cell line repositories, such as American Type […] Collection (Manassas, Va.), and are not readily available to the research community. Consequently, an in vitro tissue culture model of sphingolipidosis was devised using 2R,3S,4E)-N-methyl-5-(4′pentylphenyl)-2-aminopent-4-ene-1,3-diol, designated SK1-I (BML-258), a potent, water soluble, isozyme-specific inhibitor of sphingosine kinase-1. […] U-2-OS human osteosarcoma cells were seeded at 22,500 cells/well, grown overnight, and then treated with a final concentration of 0, 2.5, 5, 10 or 20 μM of SK1-I for 18.5 hours. Next, the cells were briefly treated with compound 1 and the nuclear Hoechst 33342 dye, as described in Example 7. Fluorescence signal was read on a BioTek Synergy Mx microplate reader at excitation values of 340 and 540 nm and emission values of 480 and 680 nm. […] Fluorescence microscope-based examination of the wells confirmed that compound 1 staining of the cells was confined to the vacuolar structures. This in vitro model confirms the feasibility of using the assay for detecting aberrant accumulation of sphingolipids in cells, and by extension the feasibility of using the assay in monitoring inherited lysosomal storage diseases, such as Niemann-Pick disease.

[9] = tested on: U2OS human osteosarcoma cells; assay: Fluorescence microscopy-based lysosomal perturbation assay (Dye 1 staining); type: cell-based; conditions: U2OS cells pre-treated with drug (chloroquine 8-64 μM, 18 hours), Dye 1 15 min
Description: U2OS human osteosarcoma cells were maintained in McCoy's 5a modified medium supplemented with 10% FBS and 100 units/ml penicillin/streptomycin (Invitrogen, Carlsbad, Calif.) in a humidified 37° C., 5% CO2 environment. Cells were allowed to proliferate on glass slides or were seeded into 96-well plates at a density of 2×10^4 cells/well and allowed to attach overnight. The cells were plated such that at the end of the experiment, they reached about 90% confluency.
The fluorescence-based lysosomal perturbation assay was established by first incubating cells cultivated on glass slides for 4-24 hours with chloroquine (8-64 μM final concentration), a well known phospholipidosis-inducing agent. Control cells were incubated with 0.1% (v/v) dimethyl sulfoxide (DMSO), which served as the vehicle control. Cells were then briefly (15 min) incubated with a combination of Dye 1 and Hoechst 33342 dye. Following incubation, cells grown on glass microscope slides were covered with glass coverslips, sealed with nail polish and observed using an inverted Axiovert 200M microscope (Carl Zeiss, Inc., Oberkochen, Germany). Images were acquired with a 63× objective lens (Zeiss).
Cells were subsequently stained with Dye 1 for 15 minutes. Nuclei were counter-stained with Hoechst 33342 dye. In FIG. 1, control U2OS cells are shown in (A), cells pre-treated for 18 hours with 8 μM chloroquine in (B), cells pre-treated for 18 hours with 16 μM chloroquine in (C) and cells pre-treated for 18 hours with 64 μM chloroquine in (D). This staining pattern was also consistently observed for other drugs that are known to induce phospholipidosis, such as chlorpromazine, fluoxetine, pimozide and verapamil (further described in Example 4). […] The ability of Dye 1 to detect vacuole accumulation in the described in vitro cell culture model mimicking Fabry disease strongly supports the present invention and its suitability for the detection of genetically derived lysosomal storage diseases.

[10] = Homo sapiens, 18 h, read-out: EC50 (Dye 1-based assay)

CN(C)CCNc1c(F)c(F)c(NCCN(C)C)c2c1C(=O)c1c(O)ccc(O)c1C2=O [Dye 1, 1,4-bis(2-(dimethylamino)ethylamino)-2,3-difluoro-5,8-dihydroxyanthracene-9,10-dione]
fluorescence emission intensity and wavelength maximum versus pH [1]: not significantly altered

CO/C1=C\C(C)=C\[C@@H](C)[C@@H](O)[C@@H](C)C/C(C)=C/C=C/[C@H](OC)[C@@H]([C@@H](C)[C@@H](O)[C@H](C)[C@@]2(O)C[C@@H](O)[C@H](C)[C@@H](C(C)C)O2)OC1=O [Bafilomycin A1]
vacuolation / expansion of lysosomal compartment detected by Lipid-Tox assay [2]: only Dye 1 identified the increased vacuolation | Relative Hoechst Stain (intensity of Hoechst 33342 fluorescence of treated cells compared to the untreated control; number of cells remaining) [3]: 58% | generalized cellular toxicity (loss of cells / decrease in Hoechst 33342 signal) [3]: cytotoxic | Relative Lyso Stain (intensity of Dye 1 fluorescence of treated cells compared to the untreated control) [4]: 176% | vacuolation / expansion of lysosomal compartment detected by Dye 1 assay [4]: increase vacuole number and volume | vacuolation / expansion of lysosomal compartment detected by Dye 1 assay ([4]; listed as bafilomycin A): increased vacuolation | EC50 ([4]; read-out: calculated EC50 value in Dye 1 based assay, 24 hours treatment, Dye 1 15 minutes post drug): 0.003 µM | green signal (CF-PE) relative to vehicle-treated controls ([5]; ex 492 nm, em 517 nm): low green signal | red signal (Dye 1) relative to vehicle-treated controls ([5]; then Dye 1 15 min): increased red signal

O=c1[nH]c2ccccc2n1C1CCN(CCCC(c2ccc(F)cc2)c2ccc(F)cc2)CC1 [pimozide]
generalized cellular toxicity (loss of cells / decrease in Hoechst 33342 signal) [6]: toxic doses

CN(C)CCCn1cc(C2=C(c3c[nH]c4ccccc34)C(=O)NC2=O)c2ccccc21 [GF-109203X]
Relative Hoechst Stain (intensity of Hoechst 33342 fluorescence of treated cells compared to the untreated control; number of cells remaining) [3]: 87% | Relative Lyso Stain (intensity of Dye 1 fluorescence of treated cells compared to the untreated control) [4]: 197%

CC(C)(C)c1cc(C=C(C#N)C#N)cc(C(C)(C)C)c1O [Tyrphostin 9]
Relative Hoechst Stain (intensity of Hoechst 33342 fluorescence of treated cells compared to the untreated control; number of cells remaining) [3]: 31% | Relative Lyso Stain (intensity of Dye 1 fluorescence of treated cells compared to the untreated control) [4]: 200%

CC(=O)c1c(O)c(C)c(O)c(Cc2c(O)c3c(c(C(=O)/C=C/c4ccccc4)c2O)OC(C)(C)C=C3)c1O [Rottlerin]
Relative Hoechst Stain (intensity of Hoechst 33342 fluorescence of treated cells compared to the untreated control; number of cells remaining) [3]: 34% | generalized cellular toxicity (loss of cells / decrease in Hoechst 33342 signal) [3]: generally cytotoxic | generalized cellular toxicity (loss of cells / decrease in Hoechst 33342 signal) ([3]; listed as rottlerin): significant toxicity | Relative Lyso Stain (intensity of Dye 1 fluorescence of treated cells compared to the untreated control) [4]: 187% | hit call in ICCB library screen (Dye 1 accumulation) [4]: false positive hit

CC(C)NCC(O)COc1cccc2ccccc12 (centres unmarked) [Propranolol (S-), Propranolol]
time to half maximum uptake [7]: 4 to 10 min | time to steady state of cellular uptake [7]: 40 to 60 min

CCCCCc1ccc(/C=C/[C@H](O)[C@@H](CO)NC)cc1 [SK1-I]
emission values at 680 nm (accumulation of sphingolipids within the vacuolar compartment) ([8]; U-2-OS, 0, 2.5, 5, 10 or 20 μM for 18.5 hours): Dose-dependent increases | cell viability (480 nm emission intensity from Hoechst dye) ([8]; U-2-OS, 0-20 μM for 18.5 hours): Cell viability was maintained under all treatment conditions

Cn1cc(C2=C(c3cn(CCCSC(=N)N)c4ccccc34)C(=O)NC2=O)c2ccccc21 [Ro 31-8220]
Relative Hoechst Stain (intensity of Hoechst 33342 fluorescence of treated cells compared to the untreated control; number of cells remaining) [3]: 89% | Relative Lyso Stain (intensity of Dye 1 fluorescence of treated cells compared to the untreated control) [4]: 146% | hit call in ICCB library screen (Dye 1 accumulation) [4]: positive hit

CCCCOc1cc(CC2CNC(=O)N2)ccc1OC (centres unmarked) [Ro 20-1724]
Relative Hoechst Stain (intensity of Hoechst 33342 fluorescence of treated cells compared to the untreated control; number of cells remaining) [6]: 53% | Relative Lyso Stain (intensity of Dye 1 fluorescence of treated cells compared to the untreated control) [4]: 190%

CNCCC(Oc1ccc(C(F)(F)F)cc1)c1ccccc1 (centres unmarked) [fluoxetine]
punctate pattern of cytoplasmic staining / levels of Dye 1 in the cells [9]: increased in a dose-dependent manner | generalized cellular toxicity (loss of cells / decrease in Hoechst 33342 signal) [6]: toxic doses

CN(C)CCCN1c2ccccc2Sc2ccc(Cl)cc21 [chlorpromazine]
punctate pattern of cytoplasmic staining / levels of Dye 1 in the cells [9]: increased in a dose-dependent manner | EC50 [4, 10]: 6 µM

NC(=O)c1ccc(-c2nc(-c3ccc4c(c3)OCO4)c(-c3ccccn3)[nH]2)cc1 [SB-431542]
Relative Hoechst Stain (intensity of Hoechst 33342 fluorescence of treated cells compared to the untreated control; number of cells remaining) [6]: 101% | Relative Lyso Stain (intensity of Dye 1 fluorescence of treated cells compared to the untreated control) [4]: 154% | hit call in ICCB library screen (Dye 1 accumulation) [4]: positive hits

COc1ccc(CCN(C)CCCC(C#N)(c2ccc(OC)c(OC)c2)C(C)C)cc1OC (centres unmarked) [verapamil]
punctate pattern of cytoplasmic staining / levels of Dye 1 in the cells [9]: increased in a dose-dependent manner | EC50 [4, 10]: 30 µM
